According to patent US11839212B2, “Synergistic pesticidal compositions and methods for delivery of insecticidal active ingredients” (0903608 B.C. Ltd., priority 2018, dated 2023):
Where two headings read alike, the source gives them in different places. Each block holds one compound with its values, some of them ahead of it.

Columns and labels:
Trichoplusia ni [1] = experiment: In-vitro insecticidal efficacy on artificial diet, spinosad (Entrust® SC) with aliphatic acids (Abbott efficacy, Colby synergy factor); format: in vivo; settings: Entrust SC 0.034 ppm ([…] spinosad); aliphatic acid (salt) 500 ppm; after 5 days; Abbott-corrected
Experimental: An artificial diet suitable for Trichoplusia ni (cabbage looper caterpillar) was prepared from a commercially available general purpose lepidoptera artificial diet premix (General Purpose Lepidoptera Diet available from Frontier Scientific Services, Newark, DE) mixed in agar media and then heated to liquify the media. The liquid artificial diet media was then used to fill each well of a 96-well treatment plate with 200 uL of artificial diet media, which was allowed to solidify at room temperature and stored at approximately 4 C.
A 20 uL treatment sample of each treatment formulation was then placed on top of the solidified artificial diet media in each well of the 96 well plates and allowed to dry overnight. The following day, one neonate Trichoplusia ni (cabbage looper) larva (hatched from eggs obtained from the Natural Resource Canada insect research facility in Sault-Ste-Marie, ON, Canada) was added to each well of the plate, and their mortality rate was evaluated after 5 days, to determine the insecticidal efficacy of the Entrust® SC treatment alone, each exemplary unsaturated or saturated aliphatic acid (and salt) alone, and each combination of spinosad (as Entrust® SC) and unsaturated or saturated aliphatic acid (and salt). Each experiment contained 3 replicates.
(§1) While for SF<1, antagonism is present and for SF=1, the efficacy of the compounds is merely additive.

Fusarium oxysporum = experiment: Synergistic Growth Inhibition Assay (MIC and FIC index, 96-well, resazurin); format: cell-based; settings: Fusarium oxysporum, Compound B alone
In short: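 Checkerboard dilutions of pesticidal active plus C6–C10 (or C11/C12) aliphatic acid in 96-well plates; growth scored by resazurin colour change, optionally visual.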

Botrytis cinerea = experiment: as above; format: cell-based; settings: Botrytis cinerea, 48 h, Compound B alone, 48 hours incubation, read-out: MIC (B)
In short: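 Checkerboard microdilution of pesticidal active ingredient combined with C6–C10 (or C11/C12) aliphatic acid against Botrytis cinerea, with growth read by resazurin colour change plus visual check. FIC index = sum of each agent's concentration in the inhibiting well divided by its MIC alone; 1 denotes additivity.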

Trichoplusia ni [2] = experiment: In-planta insecticidal efficacy on sprayed cabbage plants, spinosad (Entrust® SC) with octanoic acid (Abbott efficacy, Colby synergy factor); format: in vivo; settings: octanoic acid alone at 100 ppm; Abbott-corrected
Experimental: Green cabbage plants (Brassica oleracea var. capitate, Danish Ballhead cultivar) were grown from seed (available from West Coast Seeds, Delta, BC, Canada) in potting soil for 4-6 weeks in a pest-free indoor growing environment. At between 4-6 weeks of age, each cabbage plant was sprayed with 20 mL of treatment solution using a pressurized CO2 sprayer, and allowed to dry.
as §1

Trichoplusia ni [3] = experiment: In-planta insecticidal efficacy on sprayed cabbage plants, Pylon® (chlorfenapyr) with unsaturated aliphatic acids (Colby synergy factor); format: in vivo; settings: 0.06 mg/mL aliphatic acid (salt)
Experimental: A stock solution was prepared for trans-2-hexenoic acid (available from Sigma-Aldrich, St. […] Green cabbage plants (Brassica oleracea var. capitate, Danish Ballhead cultivar) were grown from seed (available from West Coast Seeds, Delta, BC, Canada) in potting soil for 4 weeks in a pest-free indoor growing environment. At 4 weeks of age, each cabbage plant was sprayed with 10 mL of treatment solution using a hand pump sprayer bottle, and allowed to dry. […] The treated cabbage plants were then placed in nylon isolation tents and kept in an indoor growing environment and the larvae were left to feed on the plants. In one set of cabbage plants, the larvae were left to feed for 48 hours, and then the number of surviving larvae were observed and survival rates (%) were determined. In a second separate set of cabbage plants, the larvae were left to feed for 72 hours, and then the number of surviving larvae were observed and survival rates (%) were determined. Each experiment was repeated at least 3 times. […] In accordance with the Colby Formula, the expected efficacy, E (%), of a combination treatment of compounds A and B in concentrations a and b, respectively, can be determined by evaluating: […] The existence and extent of synergy present in a combination treatment can be determined according to the Colby Formula by evaluating a Synergy Factor, SF=(Observed efficacy)/(Expected efficacy).

Sclerotinia sclerotiorum = experiment: Synergistic Growth Inhibition Assay (MIC and FIC index, 96-well, resazurin); format: cell-based; settings: Sclerotinia sclerotiorum, […], Compound B alone, 7 days incubation, read-out: MIC (B)
In short: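 Checkerboard of pesticidal active ingredient combined with C6–C10 (or C11/C12) aliphatic acids in serial dilutions against Sclerotinia sclerotiorum. Growth scored by resazurin colour change plus visual inspection; FIC index is the sum of each agent's concentration divided by its MIC alone, with 1 indicating additivity.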

Alternaria solani = experiment: as above; format: cell-based; settings: Alternaria solani, […], Table 60; Compound B alone; 7 days incubation; read-out: MIC (B)
In short: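 Checkerboard assay in 96-well plates: serial dilutions of active ingredient combined with C6–C10 aliphatic acid, fungus pre-grown to exponential phase in potato dextrose broth. MIC per agent alone and in combination; FIC = combination concentration/MIC alone, FIC index = sum of both agents' FICs (1 = additive).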

SMILES: C/C=C/C=C/C(=O)[O-].[K+] [(2E,4E)-2,4 hexadienoic acid, K-salt]
Observed Efficacy, W (%) (Trichoplusia ni [1]): 9.1%

MIC (Fusarium oxysporum; 24 h, Table 7, 24 hour incubation, read-out: MIC(B)): 569 µg/mL | MIC (Fusarium oxysporum; 24 h, Table 9, 24 hour incubation, read-out: MIC (B)): 569 µg/mL | MIC (Fusarium oxysporum; Table 8, read-out: MIC (B)): 1140 µg/mL | MIC (Botrytis cinerea; Table 58): 625 µg/mL
SMILES: CCCCCCCC(=O)O [Octanoic acid, octanoic acid]
Observed Efficacy, W (%) (Trichoplusia ni [2]): 0%

SMILES: CCCC=CCC(=O)O [3-heptanoic acid]
Observed Efficacy, W (%) (Trichoplusia ni [1]): 4.5%

SMILES: CC=CC=CC(=O)[O-].[K+] [2,4-hexadienoic acid, K-salt]
Observed Efficacy (%) (Trichoplusia ni [3]; after 48 hours): 13% | Observed Efficacy (%) (Trichoplusia ni [3]; after 72 hours): 0%

SMILES: CCCCCCCC(=O)[O-].[K+] [Octanoic acid, K-salt]
Observed Efficacy, W (%) (Trichoplusia ni [1]): 0%

MIC (Fusarium oxysporum; 24 h, Table 3, 24 hour incubation, read-out: MIC(B)): 73.4 µg/mL | MIC (Fusarium oxysporum; 24 h, Table 4, 24 hour incubation, read-out: MIC (B)): 73.4 µg/mL | MIC (Fusarium oxysporum; 48 h, Table 27, 48 hours incubation, read-out: MIC (B)): 312 µg/mL | MIC (Fusarium oxysporum; 48 h, Table 28, 48 hours incubation, read-out: MIC (B)): 78.1 µg/mL | MIC (Fusarium oxysporum; 48 h, Table 29, 48 hours incubation, read-out: MIC (B)): 156 µg/mL | MIC (Fusarium oxysporum; 48 h, Table 31, 48 hours incubation, read-out: MIC (B)): 78.1 µg/mL | MIC (Botrytis cinerea; Table 43): 78.1 µg/mL | MIC (Botrytis cinerea; Table 44): 78.1 µg/mL | MIC (Botrytis cinerea; Table 45): 78.1 µg/mL | MIC (Botrytis cinerea; Table 47): 78.1 µg/mL | MIC (Botrytis cinerea; Table 49): 78.1 µg/mL | MIC (Botrytis cinerea; Table 50): 78.1 µg/mL | MIC (Botrytis cinerea; Table 53): 39.1 µg/mL | MIC (Botrytis cinerea; Table 54): 39.1 µg/mL | MIC (Botrytis cinerea; Table 56): 78.1 µg/mL | MIC (Botrytis cinerea; Table 58): 156 µg/mL | MIC (Sclerotinia sclerotiorum): 156 µg/mL | MIC (Sclerotinia sclerotiorum; Table 33): 39.1 µg/mL | MIC (Sclerotinia sclerotiorum; Table 35): 39.1 µg/mL | MIC (Sclerotinia sclerotiorum; Table 38): 39.1 µg/mL | MIC (Sclerotinia sclerotiorum; Table 40): 78.1 µg/mL | MIC (Sclerotinia sclerotiorum; Table 41): 78.1 µg/mL | MIC (Alternaria solani): 78.1 µg/mL
SMILES: CCCCCCC=CCC(=O)O [3-Decenoic acid, 3-decenoic acid]
